US4925664A, “Spider toxins and methods for their use as blockers of calcium channels and amino acid receptor function” (priority 1986, dated 1990)

System: transmission between the cochlear nerve afferents and the cochlear nucleus neurons
Experiment: Blockade of synaptic transmission in chick cochlear nucleus, in vitro chick brain stem preparation (field potential)
Assay type: cell-based
Conditions: conventional EAA receptor antagonists and agonists
Experimental: The toxin was bath-applied to cochlear nucleus neurons in an in vitro preparation of chick brain stem.
In order to test the effects of the spider venom, late embryos or hatchling chickens were used in all experiments. Brain stems were removed and maintained in vitro using methods known and described in the art, except that the temperature in the recording chamber was held at 32° C. The tissue was superfused in avian Tyrode solution at about 1 ml per minute.
The field potential evoked by direct electrical stimulation of the cochlear nerve was recorded with a 4M potassium acetate electrode. The short latency component of the field potential reflects the compound action […] of cochlear nerve axons. This afferent volley is followed by a negativity representing the postsynaptic response of NM neurons.

Row | Compound | concentration required to completely suppress transmission
1 | O=C(O)[C@H]1CCCN[C@H]1C(=O)O (relative stereo) [cis-2,3-piperidine dicarboxylic acid] | millimolar range
2 | N[C@H](CCC(=O)NCC(=O)O)C(=O)O [-D-glutamylglycine] | millimolar range
3 | N[C@@H](Cn1oc(=O)[nH]c1=O)C(=O)O [quisqualate] | millimolar concentrations
